Data: patent publication US9273014B2, “Bis(fluoroalkyl)-1,4-benzodiazepinone compounds and prodrugs thereof” (Bristol-Myers Squibb Company, priority 2012, dated 2016)

What was measured:
[1] = target: human Notch 3 (Homo sapiens, UniProt Q9UM47); test: Notch-CBF1 Transactivation Assay (Notch 3); assay type: cell-based; conditions: HeLa cells co-transfected with truncated Notch 3 and CBF1 luciferase reporter; 18 hours incubation
Excerpt: Notch-CBF1 Transactivation Assay
The Notch-CBF1 (C-promoter binding factor I) cell based transactivation assay is based on the ability of the released Notch intracellular domain fragments (NICDs) to function as transcription factors in conjunction with CBF1 and other nuclear factors. Luciferase assays were used to measure the antagonism of Notch-CBF1 transcriptional activity. HeLa cervical cancer cells are transiently co-transfected with pCDNA3.1/Hygro plasmids containing truncated Notch 1, Notch 2, Notch 3, or Notch 4 receptors and a PGL3 luciferase reporter vector containing 4 copies of CBF1 binding site. The cells were then tested for Notch-CBF1 activity in the absence or presence of test compounds. HeLa cells, maintained in DMEM (high glucose with HEPES), 1× glutamine/penicillin/streptomycin and 10% Fetal Bovine serum, were transiently transfected in a T175 Flask (4.5×10^6 cells/flask) using the Monster Transfection Kit (Minis #MIR2906) according to manufacturers specifications. Table 9 denotes respective DNA quantity for the transfections.
Assay media (5 μL) containing test compounds in final concentrations ranging from 5 μM to 8.4×10^−5 μM (3 fold serial dilutions) were added to the cells and the cell plates were then incubated for 18 hours at 37° C. and 5% CO2. Control wells contained DMSO vehicle (total counts) or 0.5 μM of an in-house small molecule inhibitor (background counts). Duplicates were used for each sample. Luciferase activity was measured after a 20-minute incubation with 50 μl STEADY-GLO® luciferase reagents according to manufacturer's specifications (Promega, Cat. #E2550) and analyzed by Envision plate reader (PerkinElmer, Boston, Mass.).
The antagonist effect of compounds was expressed as 100×[1−(average sample-average background)/(average total−average background)] where sample is the luciferase activity in the presence of test compound, background is equal to the luciferase activity in the presence of the small molecule inhibitor control and the total is signal induced in DMSO wells.

[2] = in vitro; conditions: human, microsomes, pH 7.4

human Notch 3, sequence (Q9UM47 40-2321 limits assumed): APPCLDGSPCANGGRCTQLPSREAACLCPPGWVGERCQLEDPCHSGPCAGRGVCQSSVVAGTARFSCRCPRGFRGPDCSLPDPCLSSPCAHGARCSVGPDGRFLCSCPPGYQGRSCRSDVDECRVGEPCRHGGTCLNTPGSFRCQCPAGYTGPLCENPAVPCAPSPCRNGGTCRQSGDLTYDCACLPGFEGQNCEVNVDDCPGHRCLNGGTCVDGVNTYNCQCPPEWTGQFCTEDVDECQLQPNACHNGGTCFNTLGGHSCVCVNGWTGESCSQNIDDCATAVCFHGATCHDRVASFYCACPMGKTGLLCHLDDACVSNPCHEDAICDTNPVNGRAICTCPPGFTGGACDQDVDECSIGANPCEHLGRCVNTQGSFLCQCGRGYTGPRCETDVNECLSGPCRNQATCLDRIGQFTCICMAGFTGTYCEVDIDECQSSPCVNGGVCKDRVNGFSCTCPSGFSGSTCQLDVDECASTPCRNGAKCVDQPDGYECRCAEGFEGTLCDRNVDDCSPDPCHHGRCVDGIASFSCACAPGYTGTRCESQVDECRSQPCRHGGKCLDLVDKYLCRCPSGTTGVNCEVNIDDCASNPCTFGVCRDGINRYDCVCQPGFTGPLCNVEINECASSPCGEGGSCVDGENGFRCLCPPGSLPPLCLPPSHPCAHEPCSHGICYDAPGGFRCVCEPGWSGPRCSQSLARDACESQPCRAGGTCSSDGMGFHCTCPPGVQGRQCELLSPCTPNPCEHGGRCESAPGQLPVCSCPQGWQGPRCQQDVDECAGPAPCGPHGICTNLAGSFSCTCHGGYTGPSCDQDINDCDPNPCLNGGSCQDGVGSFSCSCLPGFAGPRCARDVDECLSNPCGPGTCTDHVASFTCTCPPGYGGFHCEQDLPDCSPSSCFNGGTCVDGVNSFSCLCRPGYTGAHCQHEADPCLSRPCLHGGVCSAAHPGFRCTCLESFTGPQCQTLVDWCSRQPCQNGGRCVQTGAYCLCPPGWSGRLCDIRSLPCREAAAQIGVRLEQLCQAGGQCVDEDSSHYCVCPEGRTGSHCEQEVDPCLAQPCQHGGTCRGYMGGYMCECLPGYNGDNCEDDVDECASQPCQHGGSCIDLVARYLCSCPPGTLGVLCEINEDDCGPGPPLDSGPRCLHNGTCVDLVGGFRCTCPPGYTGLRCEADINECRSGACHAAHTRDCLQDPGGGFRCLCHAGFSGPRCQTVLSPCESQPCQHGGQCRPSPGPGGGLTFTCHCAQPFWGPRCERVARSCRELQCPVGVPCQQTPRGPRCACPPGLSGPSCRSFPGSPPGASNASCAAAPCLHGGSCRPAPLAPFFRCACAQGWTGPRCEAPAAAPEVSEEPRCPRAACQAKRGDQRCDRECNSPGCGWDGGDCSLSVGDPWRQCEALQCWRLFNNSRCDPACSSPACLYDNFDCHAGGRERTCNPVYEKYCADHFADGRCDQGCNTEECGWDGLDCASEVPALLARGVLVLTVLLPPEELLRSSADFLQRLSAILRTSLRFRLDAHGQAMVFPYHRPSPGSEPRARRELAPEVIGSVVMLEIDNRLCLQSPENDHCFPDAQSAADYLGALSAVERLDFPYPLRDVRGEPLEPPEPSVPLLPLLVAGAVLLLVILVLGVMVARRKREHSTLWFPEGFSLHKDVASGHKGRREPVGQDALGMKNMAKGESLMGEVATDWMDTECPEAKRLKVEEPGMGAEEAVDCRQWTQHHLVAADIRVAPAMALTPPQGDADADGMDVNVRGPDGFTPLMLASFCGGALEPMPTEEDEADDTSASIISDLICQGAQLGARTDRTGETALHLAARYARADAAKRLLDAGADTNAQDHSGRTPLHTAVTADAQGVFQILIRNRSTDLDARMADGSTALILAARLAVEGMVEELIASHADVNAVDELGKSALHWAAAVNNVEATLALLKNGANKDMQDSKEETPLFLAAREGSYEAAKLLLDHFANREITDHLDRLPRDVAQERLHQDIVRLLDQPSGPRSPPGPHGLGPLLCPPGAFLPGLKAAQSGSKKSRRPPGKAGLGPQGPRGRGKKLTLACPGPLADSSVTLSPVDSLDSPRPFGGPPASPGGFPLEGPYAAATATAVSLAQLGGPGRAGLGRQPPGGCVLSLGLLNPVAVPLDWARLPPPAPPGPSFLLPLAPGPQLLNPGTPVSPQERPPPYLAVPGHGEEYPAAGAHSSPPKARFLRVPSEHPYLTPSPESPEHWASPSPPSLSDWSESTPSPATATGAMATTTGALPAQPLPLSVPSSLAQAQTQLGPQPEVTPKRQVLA

Compound	IC50 [1]	half-life [2]
CCc1cccc2c1NC(=O)[C@@H](NC(=O)[C@H](CCC(F)(F)F)[C@H](CCC(F)(F)F)C(N)=O)N=C2c1cccc(Cl)c1 [Example 2, (2R,3S)—N-((3S)-5-(3-Chlorophenyl)-9-ethyl-2-oxo-2,3-dihydro-1H-1,4-benzodiazepin-3-yl)-2,3-bis(3,3,3-trifluoropropyl)succinamide]	4.3 nM	0.533 h
Cc1ccc(C2=N[C@H](NC(=O)[C@H](CCC(F)(F)F)[C@H](CCCC(F)(F)F)C(N)=O)C(=O)Nc3c(Cl)cccc32)cc1C [Example 4, (2R,3S)—N-(9-Chloro-5-(3,4-dimethylphenyl)-2-oxo-2,3-dihydro-1H-1,4-benzodiazepin-3-yl)-3-(4,4,4-trifluorobutyl)-2-(3,3,3-trifluoropropyl)succinamide]	7.3 nM	0.517 h
Cc1cc(C)cc(C2=N[C@H](NC(=O)[C@H](CCC(F)(F)F)[C@H](CCCC(F)(F)F)C(N)=O)C(=O)Nc3c(Cl)cccc32)c1 [Example 5, (2R,3S)—N-(9-Chloro-5-(3,5-dimethylphenyl)-2-oxo-2,3-dihydro-1H-1,4-benzodiazepin-3-yl)-3-(4,4,4-trifluorobutyl)-2-(3,3,3-trifluoropropyl)succinamide]	4 nM	0.55 h
CCc1cccc2c1NC(=O)[C@@H](NC(=O)[C@H](CCC(F)(F)F)[C@H](CCC(F)(F)F)C(N)=O)N=C2c1cccc(C)c1 [Example 6, (2R,3S)—N-((3S)-9-Ethyl-5-(3-methylphenyl)-2-oxo-2,3-dihydro-1H-1,4-benzodiazepin-3-yl)-2,3-bis(3,3,3-trifluoropropyl)succinamide]	4.5 nM	0.55 h
Cc1cccc2c1NC(=O)[C@@H](NC(=O)[C@H](CCC(F)(F)F)[C@H](CCCC(F)(F)F)C(N)=O)N=C2c1cccc(Cl)c1 [Example 8, (2R,3S)—N-((3S)-5-(3-Chlorophenyl)-9-methyl-2-oxo-2,3-dihydro-1H-1,4-benzodiazepin-3-yl)-3-(4,4,4-trifluorobutyl)-2-(3,3,3-trifluoropropyl)succinamide]	11.6 nM	1.18 h
Cc1cccc(C2=N[C@H](NC(=O)[C@H](CCC(F)(F)F)[C@H](CCC(F)(F)F)C(N)=O)C(=O)Nc3c2cccc3C(F)(F)F)c1 [Example 9, (2R,3S)—N-((3S)-5-(3-Methylphenyl)-2-oxo-9-(trifluoromethyl)-2,3-dihydro-1H-1,4-benzodiazepin-3-yl)-2,3-bis(3,3,3-trifluoropropyl)succinamide]	3.7 nM	1.88 h
Cc1cc(C)cc(C2=N[C@H](NC(=O)[C@H](CCC(F)(F)F)[C@H](CCC(F)(F)F)C(N)=O)C(=O)Nc3c(Cl)cccc32)c1 [Example 10, (2R,3S)—N-((3S)-9-Chloro-5-(3,5-dimethylphenyl)-2-oxo-2,3-dihydro-1H-1,4-benzodiazepin-3-yl)-2,3-bis(3,3,3-trifluoropropyl)succinamide]	5.4 nM	0.9 h
Cc1cccc(C2=N[C@H](NC(=O)[C@H](CCC(F)(F)F)[C@H](CCC(F)(F)F)C(N)=O)C(=O)Nc3c2cccc3C(C)C)c1 [Example 12, (2R,3S)—N-((3S)-9-Isopropyl-5-(3-methylphenyl)-2-oxo-2,3-dihydro-1H-1,4-benzodiazepin-3-yl)-2,3-bis(3,3,3-trifluoropropyl)succinamide]	3.2 nM	0.883 h
NC(=O)[C@@H](CCCC(F)(F)F)[C@@H](CCC(F)(F)F)C(=O)N[C@H]1N=C(c2ccccc2)c2cccc(OC3CC3)c2NC1=O [Example 16, (2R,3S)—N-((3S)-9-(Cyclopropyloxy)-2-oxo-5-phenyl-2,3-dihydro-1H-1,4-benzodiazepin-3-yl)-3-(4,4,4-trifluorobutyl)-2-(3,3,3-trifluoropropyl)succinamide]	3.7 nM	1.8 h
Cc1cccc(C2=N[C@H](NC(=O)[C@H](CCC(F)(F)F)[C@H](CCCC(F)(F)F)C(N)=O)C(=O)Nc3c(Cl)cccc32)c1 [Example 17, (2R,3S)—N-((3S)-9-Chloro-5-(3-methylphenyl)-2-oxo-2,3-dihydro-1H-1,4-benzodiazepin-3-yl)-3-(4,4,4-trifluorobutyl)-2-(3,3,3-trifluoropropyl)succinamide]	2.4 nM	0.933 h
Cc1cccc2c1NC(=O)[C@@H](NC(=O)[C@H](CCC(F)(F)F)[C@H](CCCC(F)(F)F)C(N)=O)N=C2c1cccc(C(F)(F)F)c1 [Example 18, (2R,3S)—N-((3S)-9-Methyl-2-oxo-5-(3-(trifluoromethyl)phenyl)-2,3-dihydro-1H-1,4-benzodiazepin-3-yl)-3-(4,4,4-trifluorobutyl)-2-(3,3,3-trifluoropropyl)succinamide]	7.7 nM	> 2 h
NC(=O)[C@@H](CCC(F)(F)F)[C@@H](CCC(F)(F)F)C(=O)N[C@H]1N=C(c2ccccc2)c2cccc(OC3CC3)c2NC1=O [Example 19, (2R,3S)—N-((3S)-9-(Cyclopropyloxy)-2-oxo-5-phenyl-2,3-dihydro-1H-1,4-benzodiazepin-3-yl)-2,3-bis(3,3,3-trifluoropropyl)succinamide]	4 nM	1.8 h
Cc1cccc2c1NC(=O)[C@@H](NC(=O)[C@H](CCC(F)(F)F)[C@H](CCC(F)(F)F)C(N)=O)N=C2c1cccc(C(F)(F)F)c1 [Example 20, (2R,3S)—N-((3S)-9-Methyl-2-oxo-5-(3-(trifluoromethyl)phenyl)-2,3-dihydro-1H-1,4-benzodiazepin-3-yl)-2,3-bis(3,3,3-trifluoropropyl)succinamide]	1.4 nM	> 2 h
Cc1ccccc1C1=N[C@H](NC(=O)[C@H](CCC(F)(F)F)[C@H](CCC(F)(F)F)C(N)=O)C(=O)Nc2c(Cl)cccc21 [Example 21, (2R,3S)—N-((3S)-9-Chloro-5-(2-methylphenyl)-2-oxo-2,3-dihydro-1H-1,4-benzodiazepin-3-yl)-2,3-bis(3,3,3-trifluoropropyl)succinamide]	6.1 nM	1.78 h
Cc1cccc2c1NC(=O)[C@@H](NC(=O)[C@H](CCC(F)(F)F)[C@H](CCC(F)(F)F)C(N)=O)N=C2c1ccc(F)cc1 [Example 22, (2R,3S)—N-((3S)-5-(4-Fluorophenyl)-9-methyl-2-oxo-2,3-dihydro-1H-1,4-benzodiazepin-3-yl)-2,3-bis(3,3,3-trifluoropropyl)succinamide]	6.3 nM	> 2 h
Cc1cccc2c1NC(=O)[C@@H](NC(=O)[C@H](CCC(F)(F)F)[C@H](CCC(F)(F)F)C(N)=O)N=C2c1ccccc1 [Example 23, (2R,3S)—N-((3S)-9-Methyl-2-oxo-5-phenyl-2,3-dihydro-1H-1,4-benzodiazepin-3-yl)-2,3-bis(3,3,3-trifluoropropyl)succinamide]	8.3 nM	1.68 h
NC(=O)[C@@H](CCC(F)(F)F)[C@@H](CCC(F)(F)F)C(=O)N[C@H]1N=C(c2ccccc2)c2cccc(C3CC3)c2NC1=O [Example 24, (2R,3S)—N-((3S)-9-Cyclopropyl-2-oxo-5-phenyl-2,3-dihydro-1H-1,4-benzodiazepin-3-yl)-2,3-bis(3,3,3-trifluoropropyl)succinamide]	2.1 nM	1.03 h
NC(=O)[C@@H](CCC(F)(F)F)[C@@H](CCC(F)(F)F)C(=O)N[C@H]1N=C(c2cccc(C3CC3)c2)c2cccc(Cl)c2NC1=O [Example 25, (2R,3S)—N-((3S)-9-Chloro-5-(3-cyclopropylphenyl)-2-oxo-2,3-dihydro-1H-1,4-benzodiazepin-3-yl)-2,3-bis(3,3,3-trifluoropropyl)succinamide]	2.9 nM	> 2 h
COc1cccc2c1NC(=O)[C@@H](NC(=O)[C@H](CCC(F)(F)F)[C@H](CCC(F)(F)F)C(N)=O)N=C2c1cccc(Cl)c1 [Example 26, (2R,3S)—N-((3S)-5-(3-Chlorophenyl)-9-methoxy-2-oxo-2,3-dihydro-1H-1,4-benzodiazepin-3-yl)-2,3-bis(3,3,3-trifluoropropyl)succinamide]	3.4 nM	1.37 h
COc1cccc2c1NC(=O)[C@@H](NC(=O)[C@H](CCC(F)(F)F)[C@H](CCC(F)(F)F)C(N)=O)N=C2c1ccc(Cl)cn1 [Example 34, (2R,3S)—N-((3S)-5-(5-Chloro-2-pyridinyl)-9-methoxy-2-oxo-2,3-dihydro-1H-1,4-benzodiazepin-3-yl)-2,3-bis(3,3,3-trifluoropropyl)succinamide]		1.93 h
COc1ccc(C2=N[C@H](NC(=O)[C@H](CCC(F)(F)F)[C@H](CCC(F)(F)F)C(N)=O)C(=O)Nc3ccccc32)cc1 [Example 35, (2R,3S)—N-((3S)-5-(4-Methoxyphenyl)-2-oxo-2,3-dihydro-1H-1,4-benzodiazepin-3-yl)-2,3-bis(3,3,3-trifluoropropyl)succinamide]		1.97 h
